From the supplement of paper PMC10307832

How the values were obtained:
Assay in all cases: relative viability (nuclei count vs DMSO), 5 days (fraction); higher = more cells survive
[1] = compound: Cn1c(=O)n(-c2ccc(C(C)(C)C#N)cc2)c2c3cc(-c4cnc5ccccc5c4)ccc3ncc21 [Dactolisib]
In short: (§1)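 Viability was read as treated-well nuclei divided by vehicle-well nuclei, using the median across plates. Lung cancer cell lines in 1536-well plates were kept overnight at 37 °C, pinned with five √10-spaced library-drug doses, and after 5 days were Hoechst-stained, imaged at 4× and counted in MetaXpress. Plates passed only with control CV below 25% and at least one doubling.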

[2] = compound: C1CCC(CC1)N(CCNCCC2=C3C(=C(C=C2)O)NC(=O)CO3)C(=O)CCNCCC4=CC(=C(C=C4)Cl)Cl [AZ505]
In short: as §1

[3] = compound: C1CCC(CC1)N(CCNCCC2=C3C(=C(C=C2)O)NC(=O)CO3)C(=O)CCNCCC4=CC(=C(C=C4)Cl)Cl [AZ505] + CS(=O)(=O)N1CCN(Cc2cc3nc(-c4cccc5[nH]ncc45)nc(N4CCOCC4)c3s2)CC1 [Pictilisib] (partner 1 µM)
In short: (§2)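 Lung cancer cell lines, seeded in 1536-well plates, were treated the following day by pin tool with a single drug or with five library-drug doses (not always all listed) in √10 steps on top of a fixed anchor-drug dose. Cells were fixed and nuclei stained in one step after 5 days, and nuclei were counted. Relative viability is the nuclei count for treated wells divided by that for vehicle wells, reported as medians of duplicate plates.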

[4] = compound: C1CCC(CC1)N(CCNCCC2=C3C(=C(C=C2)O)NC(=O)CO3)C(=O)CCNCCC4=CC(=C(C=C4)Cl)Cl [AZ505] + Cc1nc(NC(=O)N2CCC[C@H]2C(N)=O)sc1-c1ccnc(C(C)(C)C(F)(F)F)c1 [Alpelisib] (partner 2 µM)
In short: as §2

Q: With UMC-11 as the cell line, how does the relative viability ([1]; 0.002 µM) read?
A: Its relative viability is 0.96.

Q: And the relative viability ([1]; 0.006325 µM)?
A: The relative viability was 0.836.

Q: What about the relative viability ([1]; 0.02 µM) of the same cell line?
A: The relative viability was 0.77.

Q: And the relative viability ([1]; 0.06325 µM)?
A: The relative viability was 0.398.

Q: What about the relative viability ([1]; 0.2 µM) of the same cell line?
A: The relative viability was 0.273.

Q: And the relative viability ([2]; 0.08 µM)?
A: Its relative viability is 0.887.

Q: What about the relative viability ([2]; 0.253 µM) of the same cell line?
A: The relative viability was 0.994.

Q: And the relative viability ([2]; 0.8 µM)?
A: Its relative viability is 0.94.

Q: And the relative viability ([2]; 2.53 µM)?
A: The relative viability was 1.07.

Q: And the relative viability ([2]; 8 µM)?
A: Its relative viability is 1.03.

Q: And the relative viability ([3]; first compound 0.08 µM)?
A: The relative viability was 0.753.

Q: And the relative viability ([3]; first compound 0.253 µM)?
A: Its relative viability is 0.766.

Q: What about the relative viability ([3]; first compound 0.8 µM) of the same cell line?
A: The relative viability was 0.688.

Q: And the relative viability ([3]; first compound 2.53 µM)?
A: Its relative viability is 0.972.

Q: And the relative viability ([3]; first compound 8 µM)?
A: The relative viability was 0.974.

Q: And the relative viability ([4]; first compound 0.08 µM)?
A: The relative viability was 0.936.

Q: What about the relative viability ([4]; first compound 0.253 µM) of the same cell line?
A: Its relative viability is 1.13.

Q: And the relative viability ([4]; first compound 0.8 µM)?
A: Its relative viability is 0.899.

Q: What about the relative viability ([4]; first compound 2.53 µM) of the same cell line?
A: The relative viability was 0.827.

Q: What about the relative viability ([4]; first compound 8 µM) of the same cell line?
A: The relative viability was 1.04.
